Data reported in paper PMC4708624, “The metabolism and de-bromination of bromotyrosine in vivo” (Free Radical Biology & Medicine, 2016).
Read-outs that look alike come from different tables or passages of the source.

Tests used:
[1] = molecular target: T1, Iodotyrosine dehalogenase 1 (DEHAL1) (Homo sapiens, UniProt Q6PHW0); assay: Dehalogenation of halogenated tyrosines as substrates of DEHAL1 (HPLC); format: biochemical; details: for Formation of mono-halogenated tyrosine as product of de-halogenation of the di-halogenated substrate by DEHAL1: di-iodotyrosine or di-bromotyrosine 1 μM as substrate; for Formation of mono-halogenated tyrosine as product of de-halogenation of the di-halogenated substrate by DEHAL1 / Substrate converted by DEHAL1: 60 min at 37 °C; for Substrate converted by DEHAL1: substrate 1 μM, NADPH 100 μM, dithiothreitol 10 mM
T1 construct: made in house; host or cells: HEK293 cells transfected with DEHAL1 cDNA in pcDNA3.1; used as cell lysate
T1 sequence (Q6PHW0 1-289): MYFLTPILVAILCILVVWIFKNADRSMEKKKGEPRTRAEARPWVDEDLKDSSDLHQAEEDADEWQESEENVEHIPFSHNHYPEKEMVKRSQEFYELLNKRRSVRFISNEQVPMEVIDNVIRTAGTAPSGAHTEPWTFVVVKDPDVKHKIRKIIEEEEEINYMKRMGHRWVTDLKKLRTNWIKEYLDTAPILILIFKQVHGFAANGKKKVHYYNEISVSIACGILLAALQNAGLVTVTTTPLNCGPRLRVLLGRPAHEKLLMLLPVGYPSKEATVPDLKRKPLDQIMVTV
Experimental: (§1) Iodotyrosine dehalogenase 1 (DEHAL1) was obtained from HEK293 cells transfected with DEHAL1 cDNA, using a pcDNA3.1 expression vector [9], [19]. To determine whether bromotyrosine, di-bromotyrosine or bromo-HPA interact with iodotyrosine dehalogenase, deiodinase activity was measured based on radioiodide formation from [125I]iodotyrosine. Incubation mixtures contained [125I]iodotyrosine (∼100,000 cpm mixed with 0.1 μM unlabeled iodotyrosine), DEHAL1 enzyme, and varying amounts of iodotyrosine, bromotyrosine, di-bromotyrosine, bromp-HPA and tyrosine (0.01–100 μM final concentration) in 100 μl of PBS containing NADPH (100 μM), EDTA (2 mM), and dithiothreitol (10 mM), [19]. Mixtures were incubated in duplicate for 60 min at 37 °C, and the reactions were stopped by addition of 0.9 ml of 10% acetic acid on ice. The radioiodide in the mixture was separated from the remaining [125I]iodotyrosine with ion exchange chromatography on Dowex columns. The columns were washed with 10 % acetic acid and eluted with 8 ml of 1 mM ammonia solution. Blank incubations without enzyme were used to correct for non-enzymatic deiodination. To determine whether bromotyrosine or di-bromotyrosine could act as a substrate of DEHAL1, the brominated or iodinated tyrosine derivatives (1 μM) were incubated with DEHAL1 in 100 μl of PBS containing NADPH (100 μM), EDTA (2 mM), and dithiothreitol (10 mM). Mixtures were then incubated in duplicate for 60 min at 37 °C, and the reaction was stopped by addition of 1 ml of 10 % acetic acid on ice. Substrate levels were measured using HPLC as described. Cell lysates from HEK293 cells transfected with empty pcDNA3.1 plasmid were used as control. In experiments where di-bromotyrosine, or di-iodotyrosine was used as substrate, concentrations of mono-bromotyrosine and mono-iodotyrosine were measured as a product of de-halogenation.

[2] = molecular target: T1, Iodotyrosine dehalogenase 1 (DEHAL1); assay: Inhibition of DEHAL1 deiodinase activity (radioiodide formation from [125I]iodotyrosine); format: biochemical; details: 0.01–100 μM, 60 min at 37 °C, NADPH, dithiothreitol
Experimental: as §1

[3] = rats; for Molar percentage of the excreted metabolites in 24-h urine (% of infused [D3]bromotyrosine) / Total amounts (nmole) excreted in 24-h urine: intraperitoneal injection of 500 nmole [D3]bromotyrosine
Experimental: ^13C-Labeled internal standard (5 ng) was added to 20 µl of rat urine and diluted to 1 ml of total volume with 0.1 % (v/v) TFA/water (pH 5.0). The samples were extracted using LC18 reverse phase column, as described above. Bromotyrosine and tyrosine were derivatized with ethyl heptafluorobutyrate and silylated with tert-butyldimethylsilyl, as described, [17], [18]. Derivatized samples were dried under nitrogen, and redissolved in 20 µl of n-undecane. Samples were applied to a GC equipped with a 15-m DB-1701 (J&W Scientific, Folsom, CA) capillary column (0.25-mm internal diameter, […]), interfaced with a mass spectrometer (Trio 1000; Fisons Instruments, Beverly, MA). The ion source and interface temperatures were set at 200 and 320 °C, respectively. Samples were analyzed in negative-ion chemical ionization mode with ammonia as the reagent gas, using 1 µl of each sample for injection. The initial column temperature was maintained at 150 °C for 1 min increasing to 300 °C at 20 °C/min. Ions were monitored at 489, 492, and 498 mass units for authentic, [D3] and [^13C9]bromotyrosine, respectively (Table 1). For measurement of tyrosine, samples were monitored at 407, 410 and 415 m/z for authentic, [D3]tyrosine and [^13C9]tyrosine, respectively. Concentrations were calculated by ratio to known ^13C9-labeled internal standards.
^13C-Labeled internal standard (5 ng) was added to 20 µl of rat urine and diluted to 1 ml with 0.1 % (v/v) TFA/water (pH 5.0). The samples were extracted using LC18 reverse-phase column as described above. The samples were derivatized to the pentafluorobenzyl ester by the addition of 20 µl of di-isopropyl ethylamine in acetonitrile and […] of 10 % (v/v) pentafluorobenzyl bromide in acetonitrile for 1 h at room temperature (21–23 °C), dried under nitrogen, and redissolved in […] of n-undecane for GC/MS analysis, [14]. The GC/MS set up was as described above, and ions were monitored at 409, 412, and 417 mass units for authentic, [D3] and [^13C8]bromo-HPA, respectively, with single-ion monitoring (Table 1). For measuring HPA, samples were monitored at 331, 334, and 339 mass units for authentic, [D3] and [^13C8]HPA, respectively. The concentrations were calculated from the known ^13C8-labeled internal standards.
Male Sprague-Dawley rats (n=3 in each group) were given a single intraperitoneal injection of [D3]bromotyrosine (0.50 µmol). The animals were then transferred to standard metabolic cages, and urine samples were collected for 24 h. The levels of deuterated bromotyrosine, tyrosine, bromo-HPA, and HPA were measured in the collected urine samples, as described above.

[4] = design: method as in PMID 17686770; details: deuterium-labeled metabolites after infusion of deuterium-labeled chlorotyrosine ref 9; cited from earlier work
[5] = molecular target: T1, Iodotyrosine dehalogenase 1 (DEHAL1); design: method as in PMID 17686770; details: previous report ref 9; cited from earlier work
[6] = tested on: HepG2 cells; details: 24 h with 250 nmoles [D3]bromotyrosine (25 µM, 10 ml)
Experimental: HepG2 cells (ECACC, Wiltshire, UK) were maintained in MEM (minimum Eagle's medium) supplemented with 10% fetal calf serum. Monolayer HepG2 cells were plated in 175 cm^3 vented tissue culture flasks until 70% confluent, when they were incubated with [D3]bromotyrosine (final concentration 25 µM). 24 h after incubation with [D3]bromotyrosine, cells were washed two times with PBS and were detached from the flask using a cell scraper. Detached cells were washed and re-suspended in 2 ml of PBS. Cell suspensions were subjected to protein precipitation by adding 1 ml of ice-cold chloroform/methanol (2:1, v/v) solution. After centrifugation (1000×g for 20 min), protein precipitates were washed with methanol and lyophilized under vacuum for assessment of protein-bound [D3]bromotyrosine and [D3]tyrosine as described [9], [17], [18]. […] The samples were then derivatized with ethyl heptafluorobutyrate and silylated with tert-butyldimethylsilyl, and monitored for ion masses of 492, 498, 410, 415 for [D3]bromotyrosine, [^13C9]bromotyrosine, [D3]tyrosine and [^13C9]tyrosine, respectively (Table 1) using negative-ion chemical ionization GC/MS [9], [17], [18]. […] All data are expressed as mean±standard error.

[7] = Incubation of bromo-HPA with rat liver homogenates; format: in vitro ADME; details: data not shown
[8] = Identification of urinary metabolites of di-bromotyrosine in vivo (full scan GC/MS); design: species or system Sprague-Dawley rats; details: rats, intraperitoneal 30 µmol, 24 h urine, compared with tyrosine injected animals
Experimental: A similar method used by Ohshima et al. was used for identification of urinary metabolites of di-bromotyrosine. […] Urine was collected in metabolic cages for 24 h. Urine samples were acidified to pH 1.0 with HCl and extracted with an equivalent volume of ethyl acetate.

[9] = Endogenous bromination of HPA: urine monitoring after intraperitoneal [D6]HPA; format: in vivo; details: healthy rats, intraperitoneal injection of [D6]HPA, data not shown
Description: It is not known, whether or not, bromo-HPA is exclusively derived from the metabolism of bromotyrosine. […] Such reaction may occur for bromotyrosine as well, and needs to be explored in future investigations. Likewise, we previously reported that nitro-HPA is not exclusively derived from nitrotyrosine metabolism, and it is mainly formed by nitration of HPA in both humans and rats, [29]. To determine whether or not bromo-HPA could be formed by endogenous bromination of HPA in healthy rats, deuterium-labeled HPA ([D6]HPA) was synthesized and injected into healthy rats as described. The formation of deuterated bromo-HPA was then monitored in urine samples.

N[C@@H](Cc1ccc(O)c(I)c1)C(=O)O [iodotyrosine, reference compound]
Formation of mono-halogenated tyrosine as product of de-halogenation of the di-halogenated substrate by DEHAL1 [1]: 7%
Substrate converted by DEHAL1 [1]: 83%

N[C@@H](Cc1ccc(O)cc1)C(=O)O [tyrosine]
Inhibition of DEHAL1-induced deiodinase activity [2]: Neither tyrosine nor bromo-HPA showed the ability to inhibit deiodination

deuterated 3-bromo-4-hydroxyphenylacetic acid [[D3]Bromo-HPA]
Molar percentage of the excreted metabolites in 24-h urine (% of infused [D3]bromotyrosine) [3]: 0.43±0.04%
Total amounts (nmole) excreted in 24-h urine [3]: 2.15 ± 0.21 nmol
Molar percentage of the excreted metabolites in 24-h urine (% of infused [D3]bromotyrosine) ([3]; listed as [D3]bromo-HPA): 0.43±0.04%

O=C(O)Cc1ccc(O)cc1 [HPA, 4-hydroxyphenylacetic acid]
Urinary excretion rate relative to un-metabolized chlorotyrosine [4]: 35.6 fold
Urinary excretion rate relative to un-metabolized bromotyrosine ([3]; deuterium-labeled metabolites, 500 nmole [D3]bromotyrosine): 10.7 fold

N[C@@H](Cc1ccc(O)c(Cl)c1)C(=O)O [chlorotyrosine, 3-chlorotyrosine]
De-chlorination by DEHAL1 in vitro [5]: unable to show a significant de-chlorination

N[C@@H](Cc1cc(I)c(O)c(I)c1)C(=O)O [di-iodotyrosine, reference compound]
Substrate converted by DEHAL1 [1]: 70%

O=C(O)Cc1ccc(O)c(Cl)c1 [chloro-HPA, 3-chloro-4-hydroxyphenylacetic acid]
Urinary excretion rate relative to un-metabolized chlorotyrosine [4]: 3.3 fold

[D3]tyrosine
[D3]tyrosine detectable in cellular proteins [6]: 6.68 ± 0.52 nmol
Molar percentage of the excreted metabolites in 24-h urine (% of infused [D3]bromotyrosine) [3]: Undetectable
Total amounts (nmole) excreted in 24-h urine [3]: Undetectable

[2H]c1cc(O)c([2H])c([2H])c1CC(=O)O [[D3]HPA, [D3]4-hydroxyphenylacetic acid]
Molar percentage of the excreted metabolites in 24-h urine (% of infused [D3]bromotyrosine) [3]: 1.33±0.26%
Total amounts (nmole) excreted in 24-h urine [3]: 6.66 ± 1.33 nmol
Molar percentage of the excreted metabolites in 24-h urine (% of infused [D3]bromotyrosine) ([3]; listed as [D3]4-hydroxyphenylacetic acid): ~ 1.3%

O=C(O)Cc1ccc(O)c(Br)c1 [bromo-HPA, 3-bromo-4-hydroxyphenylacetic acid]
Formation of de-brominated products on incubation with DEHAL1 ([1]; data not shown): not associated with formation of de-brominated products
Inhibition of DEHAL1-induced deiodinase activity [2]: Neither tyrosine nor bromo-HPA showed the ability to inhibit deiodination
Formation of de-brominated products on incubation with rat liver homogenates [7]: not associated with formation of de-brominated products

N[C@@H](Cc1ccc(O)c(Br)c1)C(=O)O [bromotyrosine, 3-bromotyrosine]
Formation of mono-halogenated tyrosine as product of de-halogenation of the di-halogenated substrate by DEHAL1 [1]: 3%
Substrate converted by DEHAL1 [1]: 18%
Inhibition of DEHAL1-induced deiodinase activity [2]: could inhibit DEHAL1-induced deiodinase activity in a concentration-dependent manner

N[C@@H](Cc1cc(Br)c(O)c(Br)c1)C(=O)O [di-bromotyrosine, 3,5-di-bromotyrosine]
Substrate converted by DEHAL1 [1]: 4%
Urinary metabolites identified [8]: di-bromo-HPA and mono-bromo-HPA
Inhibition of DEHAL1-induced deiodinase activity [2]: could inhibit DEHAL1-induced deiodinase activity in a concentration-dependent manner

[D5]bromo-HPA
Detection of deuterated bromo-HPA in urine [9]: unable to detect
